Measured values published in patent US9833497B2, “Human originated EGF domain proteins and use of the same” (CHENGDU SOURCEBIO LIMITED-LIABILITY COMPANY, priority 2013, dated 2017).

Key:
Assay type in all cases: cell-based
E. coli DH5α = assay: Antibacterial activity: MIC and growth curve against E. coli DH5α in 96-well plate; details: minimal inhibitory concentration against E. coli DH5α; 96-well plate, 5×10^5 CFU/mL, 37° C., judged after 8 h
Procedure, shortened: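 Log-phase DH5α (OD600 about 0.5, 37° C, 185 rpm in LB) was pelleted, resuspended in fresh LB and seeded at 5×10^5 CFU/mL with recombinant protein at 50, 25 and 12.5 μg/mL (two-fold series), in triplicate. Plates were shaken at 175 rpm, 37° C, and OD600 was read every 30 min. MIC was the lowest concentration with no growth.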

E. coli BL21 = assay: MIC against Gram-negative bacteria: E. coli BL21; details: 5×10^5 CFU/mL; for MIC E. coli BL21: two-fold serial dilution
Procedure, shortened: (§1)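 LB broth cultures at McFarland 0.5, spun down, resuspended, diluted to 5×10^5 CFU/mL final. Two-fold serial dilutions of purified human EGF domain proteins, triplicate. 37° C, 175 rpm shaking. Endpoint: no visible growth.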

Pseudomonas aeruginosa = assay: MIC against Gram-negative bacteria: Pseudomonas aeruginosa; details: 5×10^5 CFU/mL; for MIC P. aeruginosa: two-fold serial dilution
Procedure, shortened: as §1

Klebsiella pneumonia = assay: MIC against Gram-negative bacteria: Klebsiella pneumonia; details: 5×10^5 CFU/mL; for MIC K. pneumonia: two-fold serial dilution
Procedure, shortened: as §1

Enterobacter cloacae = assay: MIC against Gram-negative bacteria: Enterobacter cloacae; details: 5×10^5 CFU/mL; for MIC E. cloacae: two-fold serial dilution
Procedure, shortened: as §1

Aeromonas hydrophila = assay: MIC against Gram-negative bacteria: Aeromonas hydrophila; details: 5×10^5 CFU/mL; for MIC A. hydrophila: two-fold serial dilution
Procedure, shortened: as §1

Citrobacter diversus = assay: MIC against Gram-negative bacteria: Citrobacter diversus; details: 5×10^5 CFU/mL; for MIC C. diversus: two-fold serial dilution
Procedure, shortened: as §1

Moraxella catarrhalis = assay: MIC against Gram-negative bacteria: Moraxella catarrhalis; details: 5×10^5 CFU/mL; for MIC M. catarrhalis: two-fold serial dilution
Procedure, shortened: as §1

Proteus mirabilis = assay: MIC against Gram-negative bacteria: Proteus mirabilis; details: 5×10^5 CFU/mL; for MIC P. mirabilis: two-fold serial dilution
Procedure, shortened: as §1

Proteus vulgaris = assay: MIC against Gram-negative bacteria: Proteus vulgaris; details: 5×10^5 CFU/mL; for MIC P. vulgaris: two-fold serial dilution
Procedure, shortened: as §1

Serratia marcescens = assay: MIC against Gram-negative bacteria: Serratia marcescens; details: 5×10^5 CFU/mL; for MIC S. marcescens: two-fold serial dilution
Procedure, shortened: as §1

[1] = Pseudomonas aeruginosa, 10 h cultivation at 37° C.
[2] = Klebsiella pneumonia, 10 h cultivation at 37° C.
[3] = Enterobacter cloacae, 10 h cultivation at 37° C.
[4] = Aeromonas hydrophila, 10 h cultivation at 37° C.
[5] = Citrobacter diversus, 10 h cultivation at 37° C.
[6] = Moraxella catarrhalis, 10 h cultivation at 37° C.
[7] = Proteus mirabilis, 10 h cultivation at 37° C.
[8] = Proteus vulgaris, 10 h cultivation at 37° C.
[9] = Serratia marcescens, 10 h cultivation at 37° C.

## PRT68 (RSGRCANGVCKNGGTCVNLLIGGFHCVCPPGEYERPYCE; listed as Homo sapiens)
E. coli DH5α
  MIC: 12.5 µg/mL
E. coli BL21; 96-well plate, 37° C., 10 h
  MIC (μg/mL) E. coli BL21: 25 µg/mL
Pseudomonas aeruginosa; Pseudomonas aeruginosa, 96-well plate, 37° C., 10 h
  MIC (μg/mL) P. aeruginosa: 12.5 µg/mL
Klebsiella pneumonia; Klebsiella pneumonia, 96-well plate, 37° C., 10 h
  MIC (μg/mL) K. pneumonia: 25 µg/mL
Enterobacter cloacae; Enterobacter cloacae, 96-well plate, 37° C., 10 h
  MIC (μg/mL) E. cloacae: 12.5 µg/mL
Aeromonas hydrophila; Aeromonas hydrophila, 96-well plate, 37° C., 10 h
  MIC (μg/mL) A. hydrophila: 12.5 µg/mL
Citrobacter diversus; Citrobacter diversus, 96-well plate, 37° C., 10 h
  MIC (μg/mL) C. diversus: 12.5 µg/mL
Moraxella catarrhalis; Moraxella catarrhalis, 96-well plate, 37° C., 10 h
  MIC (μg/mL) M. catarrhalis: 12.5 µg/mL
Proteus mirabilis; Proteus mirabilis, 96-well plate, 37° C., 10 h
  MIC (μg/mL) P. mirabilis: 12.5 µg/mL
Proteus vulgaris; Proteus vulgaris, 96-well plate, 37° C., 10 h
  MIC (μg/mL) P. vulgaris: 12.5 µg/mL
Serratia marcescens; Serratia marcescens, 96-well plate, 37° C., 10 h
  MIC (μg/mL) S. marcescens: 100 µg/mL

## PRT1072 (TQQVCAGYCANNSTCTVNQGNQPQCRCLPGFLGDRCQ; listed as Homo sapiens)
E. coli DH5α
  MIC: 50 µg/mL
E. coli BL21; 10 h cultivation at 37° C.
  MIC E. coli BL21: 12.5 µg/mL
Pseudomonas aeruginosa; 10 h cultivation at 37° C.
  MIC P. aeruginosa: 12.5 µg/mL
Klebsiella pneumonia; 10 h cultivation at 37° C.
  MIC K. pneumonia: 25 µg/mL
Enterobacter cloacae; 10 h cultivation at 37° C.
  MIC E. cloacae: 50 µg/mL
Aeromonas hydrophila; 10 h cultivation at 37° C.
  MIC A. hydrophila: 12.5 µg/mL
Citrobacter diversus; 10 h cultivation at 37° C.
  MIC C. diversus: 50 µg/mL
Moraxella catarrhalis; 10 h cultivation at 37° C.
  MIC M. catarrhalis: 12.5 µg/mL
Proteus mirabilis; 10 h cultivation at 37° C.
  MIC P. mirabilis: 12.5 µg/mL
Proteus vulgaris; 10 h cultivation at 37° C.
  MIC P. vulgaris: 12.5 µg/mL
Serratia marcescens; 10 h cultivation at 37° C.
  MIC S. marcescens: 12.5 µg/mL

## PRT1421 (ATQSCNDLCEHFCVPNPDQPGSYSCMCETGYRLAADQHRCE; listed as Homo sapiens)
E. coli DH5α
  MIC: 12.5 µg/mL
E. coli BL21; 10 h cultivation at 37° C.
  MIC against E. coli BL21: 50 µg/mL
Pseudomonas aeruginosa; [1]
  MIC against P. aeruginosa: 12.5 µg/mL
Klebsiella pneumonia; [2]
  MIC against K. pneumonia: 50 µg/mL
Enterobacter cloacae; [3]
  MIC against E. cloacae: 12.5 µg/mL
Aeromonas hydrophila; [4]
  MIC against A. hydrophila: 50 µg/mL
Citrobacter diversus; [5]
  MIC against C. diversus: 25 µg/mL
Moraxella catarrhalis; [6]
  MIC against M. catarrhalis: 12.5 µg/mL
Proteus mirabilis; [7]
  MIC against P. mirabilis: 25 µg/mL
Proteus vulgaris; [8]
  MIC against P. vulgaris: 12.5 µg/mL
Serratia marcescens; [9]
  MIC against S. marcescens: 25 µg/mL

## PRT1454 (DVNECFYEELNACSGRELCANLEGSYWCVCHQEAPATSPRKLNLEWEDCP; listed as Homo sapiens)
E. coli DH5α
  MIC: 25 µg/mL
E. coli BL21; 10 h cultivation at 37° C.
  MIC against E. coli BL21: 12.5 µg/mL
Pseudomonas aeruginosa; [1]
  MIC against P. aeruginosa: 12.5 µg/mL
Klebsiella pneumonia; [2]
  MIC against K. pneumonia: 25 µg/mL
Enterobacter cloacae; [3]
  MIC against E. cloacae: 50 µg/mL
Aeromonas hydrophila; [4]
  MIC against A. hydrophila: 25 µg/mL
Citrobacter diversus; [5]
  MIC against C. diversus: 12.5 µg/mL
Moraxella catarrhalis; [6]
  MIC against M. catarrhalis: 50 µg/mL
Proteus mirabilis; [7]
  MIC against P. mirabilis: 12.5 µg/mL
Proteus vulgaris; [8]
  MIC against P. vulgaris: 25 µg/mL
Serratia marcescens; [9]
  MIC against S. marcescens: 50 µg/mL

## PRT1410 (IEGCPGLCNSNGRCTLDQNGWHCVCQPGWRGAGCD; listed as Homo sapiens)
E. coli DH5α
  MIC: 25 µg/mL
E. coli BL21; 10 h cultivation at 37° C.
  MIC against E. coli BL21: 12.5 µg/mL
Pseudomonas aeruginosa; [1]
  MIC against P. aeruginosa: 25 µg/mL
Klebsiella pneumonia; [2]
  MIC against K. pneumonia: 50 µg/mL
Enterobacter cloacae; [3]
  MIC against E. cloacae: 25 µg/mL
Aeromonas hydrophila; [4]
  MIC against A. hydrophila: 12.5 µg/mL
Citrobacter diversus; [5]
  MIC against C. diversus: 50 µg/mL
Moraxella catarrhalis; [6]
  MIC against M. catarrhalis: 100 µg/mL
Proteus mirabilis; [7]
  MIC against P. mirabilis: 50 µg/mL
Proteus vulgaris; [8]
  MIC against P. vulgaris: 12.5 µg/mL
Serratia marcescens; [9]
  MIC against S. marcescens: 12.5 µg/mL

## PRT1139 (RYNLCDLLHNPCRNNSTCLALVDANQHCICREEFEGKNCE; listed as Homo sapiens)
E. coli DH5α
  MIC: 12.5 µg/mL
E. coli BL21; 10 h cultivation at 37° C.
  MIC E. coli BL21: 25 µg/mL
Pseudomonas aeruginosa; 10 h cultivation at 37° C.
  MIC P. aeruginosa: 12.5 µg/mL
Klebsiella pneumonia; 10 h cultivation at 37° C.
  MIC K. pneumonia: 25 µg/mL
Enterobacter cloacae; 10 h cultivation at 37° C.
  MIC E. cloacae: 50 µg/mL
Aeromonas hydrophila; 10 h cultivation at 37° C.
  MIC A. hydrophila: 12.5 µg/mL
Citrobacter diversus; 10 h cultivation at 37° C.
  MIC C. diversus: 50 µg/mL
Moraxella catarrhalis; 10 h cultivation at 37° C.
  MIC M. catarrhalis: 12.5 µg/mL
Proteus mirabilis; 10 h cultivation at 37° C.
  MIC P. mirabilis: 50 µg/mL
Proteus vulgaris; 10 h cultivation at 37° C.
  MIC P. vulgaris: 12.5 µg/mL
Serratia marcescens; 10 h cultivation at 37° C.
  MIC S. marcescens: 25 µg/mL

## PRT252 (TAACTNTSCSGHGECVETINNYTCKCDPGFSGLKCE; listed as Homo sapiens)
E. coli DH5α
  MIC: 25 µg/mL
E. coli BL21; 10 h cultivation at 37° C.
  MIC (μg/mL) E. coli BL21: 12.5 µg/mL
Pseudomonas aeruginosa; P. aeruginosa, 10 h cultivation at 37° C.
  MIC (μg/mL) P. aeruginosa: 25 µg/mL
Klebsiella pneumonia; K. pneumonia, 10 h cultivation at 37° C.
  MIC (μg/mL) K. pneumonia: 12.5 µg/mL
Enterobacter cloacae; E. cloacae, 10 h cultivation at 37° C.
  MIC (μg/mL) E. cloacae: 25 µg/mL
Aeromonas hydrophila; A. hydrophila, 10 h cultivation at 37° C.
  MIC (μg/mL) A. hydrophila: 12.5 µg/mL
Citrobacter diversus; C. diversus, 10 h cultivation at 37° C.
  MIC (μg/mL) C. diversus: 25 µg/mL
Moraxella catarrhalis; M. catarrhalis, 10 h cultivation at 37° C.
  MIC (μg/mL) M. catarrhalis: 12.5 µg/mL
Proteus mirabilis; P. mirabilis, 10 h cultivation at 37° C.
  MIC (μg/mL) P. mirabilis: 25 µg/mL
Proteus vulgaris; P. vulgaris, 10 h cultivation at 37° C.
  MIC (μg/mL) P. vulgaris: 12.5 µg/mL
Serratia marcescens; S. marcescens, 10 h cultivation at 37° C.
  MIC (μg/mL) S. marcescens: 25 µg/mL
